Publication PMC8036666, “Biological and Physico-Chemical Characteristics of Arginine-Rich Peptide Gemini Surfactants with Lysine and Cystine Spacers” (International Journal of Molecular Sciences, 2021)
Converted amounts (≈) assume the structure as drawn. Where a SMILES comes first, the peptide text is derived from it. Bridges are numbered along the chain shown (N, C = ends). Roman numbers before positions name the chains, in order. Side-chain parts run from the residue outwards. [ ]: non-standard residue; d: D form. The star is where a group is joined. Nle = CCCC[C@H](N)C(=O)O; Octanoyl = CCCCCCCC(=O)*

Columns and labels:
[1] = system: Staphylococcus aureus ATCC 33591; conditions: ATCC 33591, 24 h
Description: The Acinetobacter baumannii ATCC BAA-1605, Enterococcus faecium ATCC 700221, Escherichia coli ML-35 ATCC 43827, Klebsiella aerogenes ATCC 13048, Klebsiella pneumoniae ATCC 700603, Pseudomonas aeruginosa ATCC 9027, Staphylococcus aureus ATCC 25923, Staphylococcus aureus ATCC 33591, Candida albicans ATCC 10231, Candida glabrata ATCC 15126, strains were acquired from the American Type Culture Collection (ATCC). All the strains were stored at −80 °C in Roti-Store cryo vials and before the tests were transferred into fresh Mueller–Hinton broth (MHB, Biocorp, Warsaw, […], Steinheim, Germany) for fungi and incubated for 24 h at 37 °C. Then, the cultures were seeded on the Mueller–Hinton agar (BioMaxima, Lublin, Poland) or Sabouraud dextrose agar (SDA, BioMaxima, Lublin, Poland) plates, respectively, and incubated as just mentioned. These agar cultures were used for further microbiological assays. […]
(§1) The MICs were determined by the broth microdilution method according to the Clinical and Laboratory Standard Institute guidelines. […] The experiments were conducted on 96-well microtiter polystyrene plates (Kartell, Noviglio, Italy). The growth was assessed visually after incubation, and the MIC was assumed as the lowest peptide concentration at which a noticeable growth of microorganisms was inhibited. All experiments were conducted in triplicate.

[2] = system: Candida albicans ATCC 10231; type: cell-based; conditions: ATCC 10231, 24 h
Description: (§2) Biofilm is associated with life-threating infections due to its outstanding resistance to antibiotics. In this study, the antibiofilm characteristics of USCLs and gemini surfactants were evaluated.
(§3) The MBECs were determined as described previously using 96-well polystyrene flat-bottom plates. For this purpose, 24 h cultures of microorganisms were diluted to obtain a final density of 5.0 × 10^5 CFU/mL and 2.0 × 10^5 CFU/mL of bacteria and fungi, respectively. Microorganisms were diluted in MHB or RPMI-1640 with 2% D-glucose (bacteria and fungi, respectively). Briefly, 100 µL of cell suspension was added into the test plates. After 24 h of incubation at 37 °C, the wells were rinsed three times with a PBS (pH 7.4) to remove non-adherent cells. Subsequently, 100 μL of the test compounds in a concentration range (1–512 μg/mL) were added to each well. After 24 h of incubation at 37 °C, 20 μL of a cell viability reagent was added (resazurin, 4 g/L; Sigma Aldrich, St. Louis, MO, USA). The MBEC was read after 1 h. The determined values were recorded as the lowest concentration at which the reduction of resazurin (from blue to pink) was lower or equal to 10 ± 0.5% as compared to the positive (100%) and negative (0%) controls. The reduction was monitored by measuring absorbance at 570 nm (reduced) and 600 nm (oxidized) using a microplate spectrophotometer (Multiskan GO Microplate Spectrophotometer, Thermo Fisher Scientific, Vantaa, Finland). All experiments were conducted in triplicate.

[3] = system: Acinetobacter baumannii ATCC BAA 1605; type: cell-based; conditions: ATCC BAA 1605, 24 h
Description: as §2, §3

[4] = system: Staphylococcus aureus ATCC 25923; type: cell-based; conditions: ATCC 25923, 24 h
Description: as §2, §3

[5] = system: Enterococcus faecium ATCC 700221; type: cell-based; conditions: ATCC 700221, 24 h
Description: as §2, §3

[6] = system: Staphylococcus aureus ATCC 33591; type: cell-based; conditions: ATCC 33591, 24 h
Description: as §2, §3

[7] = system: Klebsiella aerogenes ATCC 13048; type: cell-based; conditions: ATCC 13048, 24 h
Description: as §2, §3

[8] = system: Candida glabrata ATCC 15126; type: cell-based; conditions: ATCC 15126, 24 h
Description: as §2, §3

[9] = system: Klebsiella pneumoniae ATCC 700603; type: cell-based; conditions: ATCC 700603, 24 h
Description: as §2, §3

[10] = system: Pseudomonas aeruginosa ATCC 9027; type: cell-based; conditions: ATCC 9027, 24 h
Description: as §2, §3

[11] = system: Acinetobacter baumannii ATCC BAA 1605; conditions: ATCC BAA 1605, 24 h
Description: (§4) The Acinetobacter baumannii ATCC BAA-1605, Enterococcus faecium ATCC 700221, Escherichia coli ML-35 ATCC 43827, Klebsiella aerogenes ATCC 13048, Klebsiella pneumoniae ATCC 700603, Pseudomonas aeruginosa ATCC 9027, Staphylococcus aureus ATCC 25923, Staphylococcus aureus ATCC 33591, Candida albicans ATCC 10231, Candida glabrata ATCC 15126, strains were acquired from the American Type Culture Collection (ATCC). All the strains were stored at −80 °C in Roti-Store cryo vials and before the tests were transferred into fresh Mueller–Hinton broth (MHB, Biocorp, Warsaw, Poland) for bacteria or RPMI-1640 (Sigma-Aldrich, Steinheim, Germany) for fungi and incubated for 24 h at 37 °C. Then, the cultures were seeded on the Mueller–Hinton agar (BioMaxima, Lublin, Poland) or Sabouraud dextrose agar (SDA, BioMaxima, Lublin, Poland) plates, respectively, and incubated as just mentioned. These agar cultures were used for further microbiological assays. Cell densities for all assays were adjusted spectrophotometrically (Multiskan GO Microplate Spectrophotometer, Thermo Fisher Scientific, Vantaa, Finland) at 600 and 530 nm for bacteria and fungi, respectively.
as §1

[12] = system: Staphylococcus aureus ATCC 25923; conditions: ATCC 25923, 24 h
Description: as §4, §1

[13] = system: Enterococcus faecium ATCC 700221; conditions: ATCC 700221, 24 h
Description: as §4, §1

[14] = system: Klebsiella aerogenes ATCC 13048; conditions: ATCC 13048, 24 h
Description: as §4, §1

[15] = system: Klebsiella pneumoniae ATCC 700603; conditions: ATCC 700603, 24 h
Description: as §4, §1

[16] = system: Pseudomonas aeruginosa ATCC 9027; conditions: ATCC 9027, 24 h
Description: as §4, §1

Row | SMILES | MIC Staphylococcus aureus ATCC 33591 [1] | MBEC Candida albicans ATCC 10231 [2] | MBEC Acinetobacter baumannii ATCC BAA 1605 [3] | MBEC Staphylococcus aureus ATCC 25923 [4] | MBEC Enterococcus faecium ATCC 700221 [5] | MBEC Staphylococcus aureus ATCC 33591 [6] | MBEC Klebsiella aerogenes ATCC 13048 [7] | MBEC Candida glabrata ATCC 15126 [8] | MBEC Klebsiella pneumoniae ATCC 700603 [9] | MBEC Pseudomonas aeruginosa ATCC 9027 [10] | MIC Acinetobacter baumannii ATCC BAA 1605 [11] | MIC Staphylococcus aureus ATCC 25923 [12] | MIC Enterococcus faecium ATCC 700221 [13] | MIC Klebsiella aerogenes ATCC 13048 [14] | MIC Klebsiella pneumoniae ATCC 700603 [15] | MIC Pseudomonas aeruginosa ATCC 9027 [16]
1 | CCCCCCCC(=O)N[C@@H](CCCC)C(=O)N[C@@H](CCCNC(=N)N)C(=O)N[C@@H](CCCNC(=N)N)C(=O)NCCCC[C@H](NC(=O)[C@H](CCCNC(=N)N)NC(=O)[C@H](CCCNC(=N)N)NC(=O)[C@H](CCCC)NC(=O)CCCCCCC)C(N)=O [Compound B6] (Octanoyl-[Nle]RRK([Arg-Arg-Nle-Octanoyl])-NH2) | 4 µg/mL (≈ 3.2 µM) | 256 µg/mL | 256 µg/mL | 16 µg/mL | 8 µg/mL | 4 µg/mL | 256 µg/mL | 512 µg/mL | 256 µg/mL | 256 µg/mL | 32 µg/mL (≈ 25.6 µM) | 2 µg/mL (≈ 1.6 µM) | 2 µg/mL (≈ 1.6 µM) | 256 (−/−) µg/mL | 64 µg/mL (≈ 51.3 µM) | 4 µg/mL (≈ 3.2 µM)
2 | CCCCCCC(CCCC)C(=O)N[C@@H](CCCNC(=N)N)C(=O)N[C@@H](CCCNC(=N)N)C(=O)NCCCC[C@H](NC(=O)[C@H](CCCNC(=N)N)NC(=O)[C@H](CCCNC(=N)N)NC(=O)C(CCCC)CCCCCC)C(N)=O (stereo partly drawn) [Compound B7] | 0.5 µg/mL (≈ 0.441 µM) | 64 µg/mL | 64 µg/mL | 8 µg/mL | 8 µg/mL | 4 µg/mL | 64 µg/mL | 256 µg/mL | 128 µg/mL | 256 µg/mL | 32 µg/mL (≈ 28.2 µM) | 1 µg/mL (≈ 0.881 µM) | 1 µg/mL (≈ 0.881 µM) | 16 µg/mL (≈ 14.1 µM) | 32 µg/mL (≈ 28.2 µM) | 4 µg/mL (≈ 3.53 µM)
3 | CCCCCCCC(=O)N[C@@H](CCCNC(=N)N)C(=O)N[C@@H](CCCNC(=N)N)C(=O)N[C@@H](CSSC[C@H](NC(=O)[C@H](CCCNC(=N)N)NC(=O)[C@H](CCCNC(=N)N)NC(=O)CCCCCCC)C(N)=O)C(N)=O [Compound C1] (I: Octanoyl-Arg-Arg-Cys-NH2 / II: Octanoyl-Arg-Arg-Cys-NH2; disulfide I:3-II:3) | 16 µg/mL (≈ 14.3 µM) | 256 µg/mL | 512 µg/mL | 64 µg/mL | 64 µg/mL | 32 µg/mL | >512 µg/mL | >512 µg/mL | >512 µg/mL | 512 µg/mL | 256 (−/−) µg/mL | 8 µg/mL (≈ 7.17 µM) | 32 µg/mL (≈ 28.7 µM) | >256 (−/−) µg/mL | >256 (−/−) µg/mL | 64 µg/mL (≈ 57.4 µM)
